Laboratory results from patent US20130039856A1, “Products and Methods” (priority 2010, published 2013).

Experiments:
humans aged 60 to 81 = details: cited from earlier work
C. elegans [1] = experiment: C. elegans lifespan analysis on E. coli plates; format: in vivo, Caenorhabditis elegans; details: for effect of supplementation on extended lifespan of C. elegans on ubiG mutant bacteria: Q-deficient ubiG bacteria; for effect of supplementation on extended lifespan of C. elegans on ubiG mutant bacteria / effect of supplementation on lifespan of C. elegans on control HT115(DE3) strain: test for toxic effect of supplement; for effect of supplementation on lifespan of C. elegans on control HT115(DE3) strain: control bacteria; for effect of media supplementation on C. elegans lifespan on aroD mutant bacteria: supplement 40 μg/ml (PABA 0.29 mM), glp-4(bn1), 25° C.; for increase in C. elegans lifespan: vs control
Procedure: Nematode growth media was prepared as described using 2.5 g/l soy peptone (Sigma P6713). Where indicated plates were supplemented with shikimic acid (40 μg/ml), I-phenylalanine, I-tryptophan and I-tyrosine (all at 40 μg/ml), 4-amino benzoic acid (PABA 40 μg/ml=0.29 mM), sodium folate (0.29 mM and 0.58 mM folic acid dissolved in NaOH). For the kanamycin treatment of bacteria, 80 μl of 10 mM kanamycin was added after 24 hours of bacterial growth as described. All compounds were from Sigma-Aldrich.
For all lifespans and unless indicated differently in Supplementary Table 1, survival analyses were performed by the following method: Eggs were prepared from bleaching adults to remove all microbes, and then placed onto plates containing aroD mutant bacteria. Animals were raised at 15° C. until adulthood due to the temperature sensitivity of mutant phenotypes. Gravid adulthoods were used to lay eggs onto fresh aroD mutant plates. At L3/L4 these animals were transferred to 25° C. and larvae of equivalent stage were put onto at least 5 plates of 25 worms for each condition. Animals were transferred to fresh plates after 7 and 14 days and scored for survival every 2-3 days. Lifespan data was analysed by JMP statistical software (SAS). Where relevant, statistical significance was determined using the Log-Rank and Wilcoxon tests of fitting to the Kaplan-Meier survival model.

E. coli [2] = experiment: HPLC/MS folate levels in bacteria; format: cell-based; details: SMX-treated OP50 bacteria, duplicate experiments, FIG. 9B
Source text: Both the aroD mutation and treatment with SMX inhibit folate synthesis in bacteria. […] This folate species is approximately three fold less abundant in the aroD mutant compared to the control strain (in duplicate experiments, FIG. 9A) and at least 10 times less abundant in the SMX-treated OP50 bacteria compared to the untreated control (in duplicate experiments, FIG. 9B).

E. coli [3] = experiment: Effect on E. coli growth (absorbance, relative cell numbers); format: cell-based
Procedure: The inventors investigated the effect of SMX on E. coli growth. Under the conditions that caused an increase in C. elegans lifespan, they scraped the E. coli from the agar plates used to culture worms after two days of growth and used absorbance to estimate relative cell numbers. 128 μg/ml SMX caused a mean effect of reducing E. coli numbers by approx 11% (+/−5%, standard error, n=4). There was no effect on growth in liquid culture with the same nutrient conditions as used for lifespan analysis (FIG. 10).

C. elegans [4] = experiment: HPLC/MS folate levels in worms; format: in vivo; details: worms raised on OP50 bacteria treated with SMX, duplicate experiments, FIG. 9D
Source text: Similar techniques were used to quantify levels of folates in worms, although proteinase K digestion of the worms was used to get a good extraction of folates. The most abundant folate species in C. elegans using this method of detection was 5-methyl tetrahydrofolate pentaglutamate. Worms raised on aroD bacteria had 25 to 30% less of this folate species than worms on the control bacteria (in duplicate experiments, FIG. 9C). Worms raised OP50 bacteria treated with SMX had approximately 75% less folate than worms raised on the control bacteria (in duplicate experiments, FIG. 9D).

flies = details: cited from earlier work
yeast = details: cited from earlier work
one species of fish = details: cited from earlier work
worms = details: cited from earlier work

## CC(C)(N)C(=O)N[C@H](COCc1ccccc1)C(=O)N1CCC2(CC1)CN(S(C)(=O)=O)c1ccccc12 [MK-677]
Humans aged 60 to 81
  muscle mass lost due to ageing restored: 20%

## Nc1ccc(C(=O)O)cc1 [PABA, para-aminobenzoic acid]
C. elegans [1]
  effect of supplementation on extended lifespan of C. elegans on ubiG mutant bacteria: no effect
  effect of supplementation on lifespan of C. elegans on control HT115(DE3) strain: no effect
  effect of media supplementation on C. elegans lifespan on aroD mutant bacteria: reversed the lifespan increase completely

## Cc1cc(NS(=O)(=O)c2ccc(N)cc2)no1 [SMX, sulfamethoxazole]
E. coli [2]
  formyl tetrahydrofolate triglutamate abundance, decrease vs untreated control: at least 10 times
E. coli [3]; 128 μg/ml SMX, agar plates, two days of growth, absorbance, +/−5% standard error, n=4
  reduction of E. coli numbers: approx 11%
E. coli [3]; same nutrient conditions as lifespan analysis, FIG. 10
  effect on E. coli growth in liquid culture: no effect
C. elegans [1]; 16 μg/ml SMX treatment of the bacteria
  increase in C. elegans lifespan: around 24%
C. elegans [1]; 64 μg/ml SMX, not significantly different to 16 μg/ml
  increase in C. elegans lifespan: 27%
C. elegans [1]; 128 μg/ml SMX, significantly different to 16 μg/ml (p<0.05)
  increase in C. elegans lifespan: 33%
C. elegans [1]; inhibition of the bacterial folate pathway, FIG. 6
  effect on C. elegans lifespan: lifespan can be increased
C. elegans [4]
  less folate (5-methyl tetrahydrofolate pentaglutamate) in worms vs worms on control bacteria: approximately 75%

## Nc1nc2ncc(CNc3ccc(C(=O)N[C@@H](CCC(=O)O)C(=O)O)cc3)nc2c(=O)[nH]1 [folate, folic acid]
C. elegans [1]
  effect of supplementation on extended lifespan of C. elegans on ubiG mutant bacteria: no effect
  effect of supplementation on lifespan of C. elegans on control HT115(DE3) strain: no effect
C. elegans [1]; SMX plates, FIG. 8
  effect of adding folic acid to SMX plates on C. elegans lifespan: reverses the effect of SMX
C. elegans [1]; doubled folate concentration (0.58 mM, 2× folate) vs 1× folate, difference not statistically significant
  effect of folate supplementation on C. elegans lifespan on aroD mutant: slightly shorter
C. elegans [1]; same molar concentration as PABA (0.29 mM, 1× folate)
  effect of folate supplementation on C. elegans lifespan extension on aroD mutant: reduced the C. elegans lifespan extension substantially but not completely

## Oc1ccc(C=Cc2cc(O)cc(O)c2)cc1 [resveratrol]
flies
  extension of lifespan: up to 30%
yeast
  extension of lifespan: up to 60%
One species of fish
  extension of lifespan: ~60%
worms
  extension of lifespan: up to 30%

## O=C(O)C1=C[C@@H](O)[C@@H](O)[C@H](O)C1 [shikimic acid]
C. elegans [1]
  effect of media supplementation on C. elegans lifespan on aroD mutant bacteria: revert to normal

## N[C@@H](Cc1c[nH]c2ccccc12)C(=O)O [tryptophan]
C. elegans [1]
  effect of media supplementation on C. elegans lifespan on aroD mutant bacteria: small negative effect
